The record followed here is patent US20140249147A1, “Substituted Bicyclic Aza-Heterocycles and Analogues as Sirtuin Modulators” (GlaxoSmithKline, LLC, priority 2011, published 2014).

Experiment [1] has as its target T1, SIRT1 (Homo sapiens, UniProt Q96EB6).
T1 sequence (Q96EB6 1-747): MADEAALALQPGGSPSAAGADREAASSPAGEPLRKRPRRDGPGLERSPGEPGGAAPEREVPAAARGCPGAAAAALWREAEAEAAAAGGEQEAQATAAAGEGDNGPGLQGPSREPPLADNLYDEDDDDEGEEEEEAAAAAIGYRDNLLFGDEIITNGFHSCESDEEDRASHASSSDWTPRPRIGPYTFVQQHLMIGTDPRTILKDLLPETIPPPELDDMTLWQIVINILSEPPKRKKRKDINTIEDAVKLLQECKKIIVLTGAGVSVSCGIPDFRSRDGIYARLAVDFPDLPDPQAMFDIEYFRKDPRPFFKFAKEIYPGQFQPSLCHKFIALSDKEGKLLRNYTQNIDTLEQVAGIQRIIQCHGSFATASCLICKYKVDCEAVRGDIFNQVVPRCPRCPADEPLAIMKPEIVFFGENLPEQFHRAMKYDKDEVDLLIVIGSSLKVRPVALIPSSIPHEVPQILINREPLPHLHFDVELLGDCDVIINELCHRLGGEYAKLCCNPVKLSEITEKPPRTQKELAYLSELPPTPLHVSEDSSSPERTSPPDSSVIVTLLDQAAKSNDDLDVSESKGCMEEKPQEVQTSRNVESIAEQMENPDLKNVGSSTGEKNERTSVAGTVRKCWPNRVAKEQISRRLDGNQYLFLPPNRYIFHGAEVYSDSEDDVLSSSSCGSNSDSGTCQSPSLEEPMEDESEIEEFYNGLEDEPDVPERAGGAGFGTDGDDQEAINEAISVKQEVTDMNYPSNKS
Put plainly: TAMRA based mass spectrometry assay of SIRT1 activation. It counts as biochemical. To be noted: TAMRA peptide substrate; for Emax: 25 min, percent maximum fold activation relative to control (100%), read-out: TAMRA % Fold Act; for TAMRA EC1.5 (μM): concentration giving 150% activation of SIRT1. The text has this: (§1) Mass spectrometry based assays were used to identify modulators of SIRT1 activity. The TAMRA based assay utilized a peptide having 20 amino acid residues as follows: Ac-EE-K(biotin)-GQSTSSHSK(Ac)NleSTEG-K(5TMR)-EE-NH2 (SEQ ID NO: 1), wherein K(Ac) is an acetylated lysine residue and Nle is a norleucine. The peptide was labeled with the fluorophore 5TMR (excitation 540 nm/emission 580 nm) at the C-terminus. The sequence of the peptide substrate was based on p53 with several modifications. In addition, the methionine residue naturally present in the sequence was replaced with the norleucine because the methionine may be susceptible to oxidation during synthesis and purification. The Trp based assay utilized a peptide having an amino acid residues as follows: Ac—R—H—K—K(Ac)—W—NH2 (SEQ ID NO: 2).
The TAMRA based mass spectrometry assay was conducted as follows: 0.5 μM peptide substrate and 120 μM βNAD^+ was incubated with 10 nM SIRT1 for 25 minutes at 25° C. in a reaction buffer (50 mM Tris-acetate pH 8, 137 mM NaCl, 2.7 mM KCl, 1 mM MgCl2, 5 mM DTT, 0.05% BSA). The SIRT1 protein was obtained by cloning the SirT1 gene into a T7-promoter containing vector, which was then transformed and expressed in BL21(DE3) bacterial cells. Test compound was added at varying concentrations to this reaction mixture and the resulting reactions were monitored. After the 25 minute incubation with SIRT1, 10 μL of 10% formic acid was added to stop the reaction. The resulting reactions were sealed and frozen for later mass spec analysis. Determination of the amount of deacetylated substrate peptide formed (or, alternatively, the amount of O-acetyl-ADP-ribose (OAADPR) generated) by the sirtuin-mediated NAD-dependent deacetylation reaction allowed for the precise measurement of relative SIRT1 activity in the presence of varying concentrations of the test compound versus control reactions lacking the test compound.
(§2) A control for inhibition of sirtuin activity was conducted by adding 1 μL of 500 mM nicotinamide as a negative control at the start of the reaction (e.g., permits determination of maximum sirtuin inhibition). A control for activation of sirtuin activity was conducted using 10 nM of sirtuin protein, with 1 μL of DMSO in place of compound, to determine the amount of deacetylation of the substrate at a given time point within the linear range of the assay. This time point was the same as that used for test compounds and, within the linear range, the endpoint represents a change in velocity. For the above assay, SIRT1 protein was expressed and purified as follows. The SirT1 gene was cloned into a T7-promoter containing vector and transformed into BL21(DE3). The protein was expressed by induction with 1 mM IPTG as an N-terminal His-tag fusion protein at 18° C. overnight and harvested at 30,000×g. Cells were lysed with lysozyme in lysis buffer (50 mM Tris-HCl, 2 mM Tris[2-carboxyethyl]phosphine (TCEP), 10 μM ZnCl2, 200 mM NaCl) and further treated with sonication for 10 min for complete lysis. The protein was purified over a Ni-NTA column (Amersham) and fractions containing pure protein were pooled, concentrated and run over a sizing column (Sephadex S200 26/60 global). The peak containing soluble protein was collected and run on an Ion-exchange column (MonoQ). Gradient elution (200 mM-500 mM NaCl) yielded pure protein. This protein was concentrated and dialyzed against dialysis buffer (20 mM Tris-HCl, 2 mM TCEP) overnight. The protein was aliquoted and frozen at −80° C. until further use.
Sirtuin-modulating compounds of Formula (I) that activated SIRT1 were identified using the assay described above and are shown below in Table 1. The EC1.5 values represent the concentration of test compounds that result in 150% activation of SIRT1. The EC1.5 values for the activating compounds of Formula (I) are represented by A (EC1.5<1 μM), B (EC1.5 1-25 μM), C (EC1.5>25 μM). […]

Experiment [2] concerns the target T1, SIRT1. In words: Trp mass spectrometry assay of SIRT1 activation. Format: biochemical. To be noted: Trp peptide substrate; for TYP EC1.5 (μM): concentration giving 150% activation of SIRT1; for TYP % Fold Act: percent maximum fold activation relative to control (100%).
From the text: as §1
The Trp mass spectrometry assay was conducted as follows. 0.5 μM peptide substrate and 120 μM βNAD^+ were incubated with 10 nM SIRT1 for 25 minutes at 25° C. in a reaction buffer (50 mM HEPES pH 7.5, […], 1 mM DTT, 0.05% BSA). The SIRT1 protein was obtained by cloning the SirT 1 gene into a T7-promoter containing vector, which was then expressed in BL21(DE3) bacterial cells and purified as described in further detail below. Test compound was added at varying concentrations to this reaction mixture and the resulting reactions were monitored. After the 25 minute incubation with SIRT1, 10 μL of 10% formic acid was added to stop the reaction. The resulting reactions were sealed and frozen for later mass spec analysis. The relative SIRT1 activity was then determined by measuring the amount of O-acetyl-ADP-ribose (OAADPR) formed (or, alternatively, the amount of deacetylated Trp peptide generated) by the NAD-dependent sirtuin deacetylation reaction in the presence of varying concentrations of the test compound versus control reactions lacking the test compound. The degree to which the test agent activated deacetylation by SIRT1 was expressed as EC1.5 (i.e., the concentration of compound required to increase SIRT1 activity by 50% over the control lacking test compound), and Percent Maximum Activation (i.e., the maximum activity relative to control (100%) obtained for the test compound).
as §2
Sirtuin-modulating compounds of Formula (I) that activated SIRT1 were identified using the assay described above and are shown below in Table 1. […]

With `O=C(Nc1cccc(C(F)(F)F)n1)c1ccc2ncc(-c3ccccc3Cl)n2n1` [Compound 21], in experiment [1], the Emax is below 350% and the “TAMRA EC1.5 (μM)” value is reported as “C (EC1.5>25 μM)”. For the same compound, in experiment [2], the “TYP EC1.5 (μM)” value is on record as “C (EC1.5>25 μM)” and the “TYP % Fold Act” value is reported as “B (Fold Activation <350%)”.
Regarding `O=C(Nc1nccs1)c1ccc2nnc(-c3cccc(N4CCOCC4)c3)n2n1` [Compound 5, 3-(3-morpholinophenyl)-N-(thiazol-2-yl)-[1,2,4]triazolo[4,3-b]pyridazine-6-carboxamide], in experiment [1], the Emax is below 350% and the “TAMRA EC1.5 (μM)” value is given as “C (EC1.5>25 μM)”. Moreover, in experiment [2], the “TYP EC1.5 (μM)” value was “C (EC1.5>25 μM)” and the “TYP % Fold Act” value is reported as “B (Fold Activation <350%)”.
For `O=C(Nc1ccc2ncc(-c3cccc(C(F)(F)F)c3)n2n1)c1nccs1` [Compound 18], in experiment [1], the Emax was below 350% and the “TAMRA EC1.5 (μM)” value is recorded as “C (EC1.5>25 μM)”. Besides, in experiment [2], the “TYP EC1.5 (μM)” value is on record as “C (EC1.5>25 μM)” and the “TYP % Fold Act” value was “B (Fold Activation <350%)”.
On to `O=C(Nc1ccc2ncc(-c3cccc(C(F)(F)F)c3)n2n1)c1ncccn1` [Compound 39], for which, in experiment [2], the “TYP EC1.5 (μM)” value is on record as “C (EC1.5>25 μM)” and the “TYP % Fold Act” value is recorded as “B (Fold Activation <350%)”.
For `O=C(Nc1nccs1)c1ccc2nnc(-c3cccc(OC(F)(F)F)c3)n2n1` [Compound 1, N-(thiazol-2-yl)-3-(3-(trifluoromethoxy)phenyl)-[1,2,4]triazolo[4,3-b]pyridazine-6-carboxamide], in experiment [1], the Emax is below 350% and the “TAMRA EC1.5 (μM)” value is given as “C (EC1.5>25 μM)”. Also, in experiment [2], the “TYP EC1.5 (μM)” value is recorded as “B (EC1.5 1-25 μM)” and the “TYP % Fold Act” value was “B (Fold Activation <350%)”.
In the same order, the values of `O=C(Nc1ccc2ncc(-c3ccccc3F)n2n1)c1nccs1` [Compound 22] are below 350%, “C (EC1.5>25 μM)”, “C (EC1.5>25 μM)” and “B (Fold Activation <350%)”.
For `O=C(Nc1ccc2ncc(-c3cccc(C(F)(F)F)c3)n2n1)c1cnccn1` [Compound 14], in experiment [1], the Emax is below 350% and the “TAMRA EC1.5 (μM)” value was “C (EC1.5>25 μM)”. Besides, in experiment [2], the “TYP EC1.5 (μM)” value is “C (EC1.5>25 μM)” and the “TYP % Fold Act” value was “B (Fold Activation <350%)”.
`O=C(Nc1ccnc(C(F)(F)F)c1)c1ccc2ncc(-c3cccc(Cl)c3)n2n1` [Compound 19]: in experiment [1], the Emax was below 350% and the “TAMRA EC1.5 (μM)” value is reported as “B (EC1.5 1-25 μM)”. In experiment [2], the “TYP EC1.5 (μM)” value is “C (EC1.5>25 μM)” and the “TYP % Fold Act” value is “B (Fold Activation <350%)”.
For `O=C(Nc1cccc(C(F)(F)F)n1)c1ccc2nnc(-c3cccc(Cl)c3)n2n1` [Compound 6], the Emax in experiment [1] is below 350%. For the same compound, in experiment [2], the “TYP % Fold Act” value is given as “B (Fold Activation <350%)”.
With `O=C(Nc1ccc2ncc(-c3ccccc3Cl)n2n1)c1cnccn1` [Compound 15], in experiment [1], the Emax is below 350% and the “TAMRA EC1.5 (μM)” value is on record as “C (EC1.5>25 μM)”. Also, in experiment [2], the “TYP EC1.5 (μM)” value is recorded as “C (EC1.5>25 μM)” and the “TYP % Fold Act” value was “B (Fold Activation <350%)”.
Regarding `O=C(Nc1cccc(N2CCOCC2)n1)c1ccc2ncc(-c3ccccc3Cl)n2n1` [Compound 44], in experiment [1], the Emax was below 350% and the “TAMRA EC1.5 (μM)” value is on record as “C (EC1.5>25 μM)”. In experiment [2], the “TYP EC1.5 (μM)” value is recorded as “C (EC1.5>25 μM)” and the “TYP % Fold Act” value was “B (Fold Activation <350%)”.
For the compound `O=C(Nc1cccc(N2CCOCC2)n1)c1ccc2ncc(-c3cccc(F)c3)n2n1` [Compound 38], in experiment [1], the Emax was below 350% and the “TAMRA EC1.5 (μM)” value is reported as “C (EC1.5>25 μM)”. In experiment [2], the “TYP EC1.5 (μM)” value was “C (EC1.5>25 μM)” and the “TYP % Fold Act” value is “B (Fold Activation <350%)”.
`O=C(Nc1ccc2ncc(-c3ccccc3F)n2n1)c1ccccn1` [Compound 23]: in experiment [1], the Emax was below 350% and the “TAMRA EC1.5 (μM)” value is on record as “C (EC1.5>25 μM)”. In experiment [2], the “TYP EC1.5 (μM)” value is “C (EC1.5>25 μM)” and the “TYP % Fold Act” value is given as “B (Fold Activation <350%)”.
As for `O=C(Nc1ccc2ncc(-c3cccc(F)c3)n2n1)c1ncccn1` [Compound 16], in experiment [1], the Emax was below 350% and the “TAMRA EC1.5 (μM)” value was “C (EC1.5>25 μM)”. Moreover, in experiment [2], the “TYP EC1.5 (μM)” value is recorded as “C (EC1.5>25 μM)” and the “TYP % Fold Act” value is recorded as “B (Fold Activation <350%)”.
Take `Cc1cc(C)nc(NC(=O)c2ccc3nnc(-c4cccc(C(F)(F)F)c4)n3n2)c1` [Compound 8]: the Emax in experiment [1] was below 350%. Besides, in experiment [2], the “TYP % Fold Act” value is “B (Fold Activation <350%)”.
With `O=C(Nc1ccccn1)c1ccc2nnc(-c3cccc(N4CCOCC4)c3)n2n1` [Compound 4], in experiment [1], the Emax was below 350% and the “TAMRA EC1.5 (μM)” value was “C (EC1.5>25 μM)”. Besides, in experiment [2], the “TYP EC1.5 (μM)” value was “C (EC1.5>25 μM)” and the “TYP % Fold Act” value was “B (Fold Activation <350%)”.
Regarding `O=C(Nc1cccc(N2CCOCC2)n1)c1ccc2ncc(-c3cccc(C(F)(F)F)c3)n2n1` [Compound 48], in experiment [1], the Emax is at least 350% and the “TAMRA EC1.5 (μM)” value is “A (EC1.5<1 μM)”. Moreover, in experiment [2], the “TYP EC1.5 (μM)” value is listed as “A (EC1.5<1 μM)” and the “TYP % Fold Act” value is recorded as “B (Fold Activation <350%)”.
